In ChEMBL document CHEMBL2069187, “2-Amino-1,3,4-thiadiazole derivative (FABT) inhibits the extracellular signal-regulated kinase pathway and induces cell cycle arrest in human non-small lung carcinoma cells” (Bioorg Med Chem Lett, 2012):
Calls of active or inactive are those of the source. The calls are words filed in the database; no cut-off is given here.

Key:
Rhabdomyosarcoma cell = experiment: Antiproliferative activity against human rhabdomyosarcoma cells; assay type: functional, cell-based
Medulloblastoma cell = experiment: Antiproliferative activity against human medulloblastoma cells; assay type: functional
Homo sapiens [1] = species on record: Homo sapiens; experiment: Antiproliferative activity against human neuroblastoma cells; assay type: functional, cell-based
Glioma cell = experiment: Antiproliferative activity against human glioma cells; assay type: functional, cell-based
Homo sapiens [2] = species on record: Homo sapiens; experiment: Antiproliferative activity against human colon adenocarcinoma cells; assay type: functional
Homo sapiens [3] = species on record: Homo sapiens; experiment: Antiproliferative activity against human lung adenocarcinoma cells; assay type: functional
[4] = Antiproliferative activity against human astrocytes; assay type: cell-based; conditions: astrocyte
Hepatocyte = experiment: Antiproliferative activity against human hepatocytes; assay type: cell-based
[5] = Antiproliferative activity against human skin fibroblast
[6] = target: T1, Mitogen-activated protein kinase; ERK1/ERK2 (Homo sapiens) (UniProt P27361+P28482); experiment: Inhibition of ERK1/2 phosphorylation in human A549 cells at 25 uM by Western blot analysis; assay type: cell-based; conditions: TDE = time-dependent effect
T1 sequence (P27361 whole entry, looked up): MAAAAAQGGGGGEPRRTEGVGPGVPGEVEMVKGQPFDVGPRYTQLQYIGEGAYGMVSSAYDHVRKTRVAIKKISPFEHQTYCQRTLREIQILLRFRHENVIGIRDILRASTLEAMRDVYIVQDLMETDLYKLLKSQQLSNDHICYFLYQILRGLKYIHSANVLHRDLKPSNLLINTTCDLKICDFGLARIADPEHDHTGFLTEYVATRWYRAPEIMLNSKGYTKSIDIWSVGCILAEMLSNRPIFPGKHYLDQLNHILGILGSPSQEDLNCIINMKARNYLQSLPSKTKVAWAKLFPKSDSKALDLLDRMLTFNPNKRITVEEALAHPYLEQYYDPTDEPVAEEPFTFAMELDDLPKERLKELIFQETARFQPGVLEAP
T1 sequence (P28482 whole entry, looked up): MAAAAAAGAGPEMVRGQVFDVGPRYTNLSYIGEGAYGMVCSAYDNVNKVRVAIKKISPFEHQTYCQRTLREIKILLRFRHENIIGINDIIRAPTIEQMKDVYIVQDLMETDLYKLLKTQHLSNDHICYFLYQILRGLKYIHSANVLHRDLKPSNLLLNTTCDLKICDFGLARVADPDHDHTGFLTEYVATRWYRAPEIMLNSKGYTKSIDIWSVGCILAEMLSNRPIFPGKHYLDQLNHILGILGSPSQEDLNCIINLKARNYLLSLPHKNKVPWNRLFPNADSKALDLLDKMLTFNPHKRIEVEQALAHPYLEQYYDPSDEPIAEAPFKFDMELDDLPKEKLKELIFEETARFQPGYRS

[7] = target: T1, Mitogen-activated protein kinase; ERK1/ERK2 (Homo sapiens); experiment: Inhibition of ERK1/2 phosphorylation in human A549 cells after 24 hrs by Western blot analysis; assay type: cell-based
[8] = target: T1, Mitogen-activated protein kinase; ERK1/ERK2 (Homo sapiens); experiment: Inhibition of ERK1/2 phosphorylation in human A549 cells assessed as peak effect time by Western blot analysis; assay type: cell-based
[9] = target: Dual specificity mitogen-activated protein kinase kinase; MEK1/2 (Homo sapiens) (UniProt P36507+Q02750); experiment: Inhibition of MEK1/2 phosphorylation in human A549 cells after 24 hrs by Western blot analysis; assay type: cell-based
Chain of Dual specificity mitogen-activated protein kinase kinase; MEK1/2 (Homo sapiens) (P36507 whole entry, looked up): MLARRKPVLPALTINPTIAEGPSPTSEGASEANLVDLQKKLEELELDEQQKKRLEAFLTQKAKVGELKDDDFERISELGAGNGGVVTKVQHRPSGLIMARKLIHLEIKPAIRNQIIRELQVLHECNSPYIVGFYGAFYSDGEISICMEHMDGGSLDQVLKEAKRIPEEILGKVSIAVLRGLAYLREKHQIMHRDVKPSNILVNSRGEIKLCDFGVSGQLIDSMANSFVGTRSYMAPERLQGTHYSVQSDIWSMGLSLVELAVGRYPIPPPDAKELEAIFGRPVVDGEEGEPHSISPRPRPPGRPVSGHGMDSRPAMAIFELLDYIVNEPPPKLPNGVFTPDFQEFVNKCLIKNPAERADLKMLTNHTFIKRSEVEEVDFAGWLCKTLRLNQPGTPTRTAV
Chain of Dual specificity mitogen-activated protein kinase kinase; MEK1/2 (Homo sapiens) (Q02750 whole entry, looked up): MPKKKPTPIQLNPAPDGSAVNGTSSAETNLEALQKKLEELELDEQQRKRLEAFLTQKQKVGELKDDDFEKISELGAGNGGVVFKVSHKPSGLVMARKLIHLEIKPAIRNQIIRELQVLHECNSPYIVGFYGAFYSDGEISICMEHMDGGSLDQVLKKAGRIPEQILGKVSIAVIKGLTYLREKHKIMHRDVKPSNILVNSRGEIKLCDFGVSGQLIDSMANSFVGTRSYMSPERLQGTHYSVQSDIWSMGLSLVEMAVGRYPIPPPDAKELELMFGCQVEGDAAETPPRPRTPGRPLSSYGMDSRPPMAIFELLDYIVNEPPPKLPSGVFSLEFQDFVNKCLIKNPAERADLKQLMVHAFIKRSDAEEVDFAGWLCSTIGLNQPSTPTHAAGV

A549 [10] = experiment: Inhibition of Rsk90 phosphorylation in human A549 cells after 24 hrs by Western blot analysis; assay type: cell-based
A549 [11] = experiment: Inhibition of CREB phosphorylation in human A549 cells after 24 hrs by Western blot analysis; assay type: cell-based
A549 [12] = experiment: Effect on total ERK1/2 levels in human A549 cells by Western blot analysis; assay type: functional, cell-based
[13] = target: T1, Mitogen-activated protein kinase; ERK1/ERK2 (Homo sapiens); experiment: Inhibition of PMA-stimulated ERK1/2 phosphorylation in human A549 cells after 24 hrs by Western blot analysis; assay type: cell-based
A549 [14] = experiment: Effect on total ERK1/2 levels in human A549 cells by Western blot analysis in presence of PMA; assay type: functional, cell-based
A549 [15] = experiment: Effect on ERK1 gene expression in human A549 cells at 5 to 25 uM after 24 hrs by RT-PCR analysis; assay type: functional, cell-based
A549 [16] = experiment: Effect on CREB1 gene expression in human A549 cells at 5 to 25 uM after 24 hrs by RT-PCR analysis; assay type: functional, cell-based
A549 [17] = experiment: Effect on p27/Kip protein expression in human A549 cells at 1 to 100 uM after 24 hrs by Western blot analysis; assay type: functional, cell-based
A549 [18] = experiment: Effect on p21Waf1/Cip1 protein expression in human A549 cells at 1 to 100 uM after 24 hrs by Western blot analysis; assay type: functional, cell-based
A549 [19] = experiment: Effect on cyclinD1 protein expression in human A549 cells at 1 to 100 uM after 24 hrs by Western blot analysis; assay type: functional, cell-based
A549 [20] = experiment: Cell cycle arrest in human A549 cells assessed as accumulation at G0/G1 phase at 10 uM after 24 hrs by acridine orange staining-based flow cytometry (Rvb =44.85 +/- 0.866 %); assay type: functional
A549 [21] = experiment: Cell cycle arrest in human A549 cells assessed as accumulation at G0/G1 phase at 25 uM after 24 hrs by acridine orange staining-based flow cytometry (Rvb =44.85 +/- 0.866 %); assay type: functional
A549 [22] = experiment: Cell cycle arrest in human A549 cells assessed as accumulation at G0/G1 phase at 50 uM after 24 hrs by acridine orange staining-based flow cytometry (Rvb =44.85 +/- 0.866 %); assay type: functional
A549 [23] = experiment: Cell cycle arrest in human A549 cells assessed as accumulation at S phase at 10 uM after 24 hrs by acridine orange staining-based flow cytometry (Rvb =26.89 +/- 2.997 %); assay type: functional
A549 [24] = experiment: Cell cycle arrest in human A549 cells assessed as accumulation at S phase at 25 uM after 24 hrs by acridine orange staining-based flow cytometry (Rvb =26.89 +/- 2.997 %); assay type: functional
A549 [25] = experiment: Cell cycle arrest in human A549 cells assessed as accumulation at S phase at 50 uM after 24 hrs by acridine orange staining-based flow cytometry (Rvb =26.89 +/- 2.997 %); assay type: functional
A549 [26] = experiment: Cell cycle arrest in human A549 cells after 24 hrs by acridine orange staining-based flow cytometry; assay type: functional
A549 [27] = experiment: Cell cycle arrest in human A549 cells assessed as accumulation at G2/M phase at 10 uM after 24 hrs by acridine orange staining-based flow cytometry (Rvb =16.66 +/- 0.622 %); assay type: functional
A549 [28] = experiment: Cell cycle arrest in human A549 cells assessed as accumulation at G2/M phase at 25 uM after 24 hrs by acridine orange staining-based flow cytometry (Rvb =16.66 +/- 0.622 %); assay type: functional
A549 [29] = experiment: Cell cycle arrest in human A549 cells assessed as accumulation at G2/M phase at 50 uM after 24 hrs by acridine orange staining-based flow cytometry (Rvb =16.66 +/- 0.622 %); assay type: functional

Q: For Oc1ccc(-c2nnc(Nc3ccc(F)cc3)s2)c(O)c1, which Activity (Rhabdomyosarcoma cell) is on record?
A: Active

Q: And the Activity (Medulloblastoma cell)?
A: Active

Q: What about the Activity (Homo sapiens [1]) of the same compound?
A: Active

Q: What about the Activity (Glioma cell) of the same compound?
A: Active

Q: And the Activity (Homo sapiens [2])?
A: Active

Q: What about the Activity (Homo sapiens [3]) of the same compound?
A: Active

Q: What about the Activity [4] of the same compound?
A: Non-toxic

Q: And the Activity (Hepatocyte)?
A: Non-toxic

Q: What about the Activity [5] of the same compound?
A: Non-toxic

Q: And the inhibition [6]?
A: tde

Q: And the inhibition [7]?
A: Dose-dependent effect

Q: What about the TIME [8] of the same compound?
A: 24 h

Q: What about the inhibition [9] of the same compound?
A: Active

Q: What about the inhibition (A549 [10]) of the same compound?
A: Active

Q: What about the inhibition (A549 [11]) of the same compound?
A: Active

Q: What about the Activity (A549 [12]) of the same compound?
A: inactive

Q: What about the inhibition [13] of the same compound?
A: Dose-dependent effect

Q: And the Activity (A549 [14])?
A: inactive

Q: What about the Activity (A549 [15]) of the same compound?
A: inactive

Q: What about the Activity (A549 [16]) of the same compound?
A: inactive

Q: And the Activity (A549 [17])?
A: inactive

Q: What about the Activity (A549 [18]) of the same compound?
A: inactive

Q: And the Activity (A549 [19])?
A: inactive

Q: What about the Activity (A549 [20]) of the same compound?
A: 43.4%

Q: And the Activity (A549 [21])?
A: 46.97%

Q: What about the Activity (A549 [22]) of the same compound?
A: 57.4%

Q: And the Activity (A549 [23])?
A: 22.62%

Q: What about the Activity (A549 [24]) of the same compound?
A: 19.84%

Q: And the Activity (A549 [25])?
A: 11.31%

Q: And the Activity (A549 [26])?
A: Dose-dependent effect

Q: And the Activity (A549 [27])?
A: 12.89%

Q: What about the Activity (A549 [28]) of the same compound?
A: 11.03%

Q: What about the Activity (A549 [29]) of the same compound?
A: 5.403%
